# From paper PMC6277767, “Broad and Region-Specific Impacts of the Synthetic Cannabinoid CP 55,940 in Adolescent and Adult Female Mouse Brains” (Frontiers in Molecular Neuroscience, 2018)
# Tested on: CD1 female mouse brain lipidome
# Assay: Brain-region lipid levels (HPLC/MS/MS lipidomics) 2 h after single i.p. 3 mg/kg CP 55,940 vs vehicle
# Type: in vivo
# Design: N-arachidonoyl phenylalanine level, Mean / N-stearoyl tryptophan level, Mean / N-stearoyl proline level, Mean / N-stearoyl leucine level, Mean / N-stearoyl phenylalanine level, Mean / N-stearoyl serine level, Mean / N-stearoyl methionine level, Mean: unit: moles per gram
# Description: The Bloomington Institutional Animal Care and Use Committee of Indiana University reviewed and approved the animal procedures. Female mice from the CD1 strain were utilized to match our study examining THC’s effects on the brain lipidome ([Leishman et al., 2018]). Mice were given a single i.p. injection of either 3 mg/kg CP or 1:1:18 cremophor:ethanol:saline vehicle (please refer to the section “3 mg/kg CP Is Relevant for Synthetic Cannabinoid Abuse and Has Stronger Effects on the Female Mouse Brain Lipidome During Adolescence” for a justification of dose and use of female mice). Three different age groups were given injections: PND 35 and PND 50 adolescents, and adult mice (PND 113). At least eight mice in each age group received CP and at least eight received vehicle. Matching the THC study time course ([Leishman et al., 2018]), mice were sacrificed via rapid decapitation 2 h after injection. Brains were immediately removed and flash-frozen in liquid nitrogen, and then stored at -80°C until dissections were performed. Brains were dissected on an ice-cold dissection plate into the following regions: STR, HIPP, CER, THAL, CTX, HYP, MID, and STEM. These abbreviations for these brain areas will be used exclusively when discussing the results generated by these specific dissections. Each dissected area was immediately placed in liquid nitrogen and then stored at -80°C until used for lipid extraction.
# Tissue extracts were performed as previously described ([Bradshaw et al., 2006]; [Stuart et al., 2013]; [Raboune et al., 2014]; [Leishman et al., 2016a],[b], [2017], [2018]). First, samples were shock frozen in liquid nitrogen, weighed, and transferred to a centrifuge tube. The mass of the largest sample was multiplied by 50 to determine how many milliliters of HPLC-grade methanol (Fisher, Fair Lawn, NJ, United States) to add. Then, samples were spiked with 500 pmol deuterium-labeled NAGly (d8NAGly; Cayman Chemical, Ann Arbor, MI, United States). Samples were placed on ice in darkness for 2 h then individually homogenized and centrifuged at 19,000 × g for 20 min at 20°C. Supernatants were diluted with HPLC water (purified in house) to make a solution of 75% water, 25% supernatant. Lipids were partially purified on C18 solid phase extraction columns (Agilent, Palo Alto, CA, United States). A series of four elutions with 1.5 mL of 60%, 75%, 85%, and 100% methanol were collected ([Stuart et al., 2013]; [Leishman et al., 2016a],[b], [2018]).
# As previously described ([Bradshaw et al., 2006]; [Tan et al., 2006]; [Smoum et al., 2010]; [Stuart et al., 2013]; [Tortoriello et al., 2013]; [Raboune et al., 2014]; [Leishman et al., 2016a],[b], [2017], [2018]), samples were analyzed using an Applied Biosystems API 3000 triple quadrupole mass spectrometer with electrospray ionization (Foster City, CA, United States). Using an Agilent XDB-C18 reversed phase analytical column and optimized mobile phase gradients, 20 μL from each elution were chromatographed. Two Shimadzu 10ADvp pumps (Columbia, MD, United States) provided the pressure for gradient elution. Mobile phase A: 20% methanol, 80% water (v/v) and 1 mM ammonium acetate (Sigma, St. Louis, MO, United States). Mobile phase B: 100% methanol, 1 mM ammonium acetate. Every method run began with 0% mobile phase B, reached 100% mobile phase B flowing at 0.2 mL/min, and gradually returned to 0% mobile phase B.
# This screening library will be referred to as the lipidome when discussing data from this study. HPLC/MS/MS data were analyzed using Analyst software (Applied Biosystems) ([Bradshaw et al., 2006]; [Tan et al., 2006]; [Stuart et al., 2013]; [Tortoriello et al., 2013]; [Raboune et al., 2014]; [Leishman et al., 2016a],[b], [2017], [2018]). Chromatograms (Supplementary Figure 3) were generated by determining the retention time of analytes from the analytical column with a [M-1] or [M+1] parent peak and a fragmentation peak corresponding to the programmed values. […]
# [1] = hippocampus, PND 35 WT female mice, 3mg/kg CP 55,940
# [2] = hypothalamus, PND 50, 3mg/kg CP 55,940
# [3] = hypothalamus, PND 50 female mice, 3mg/kg CP 55,940
smiles,measurement,setting,value
"CCCCCCC(C)(C)c1ccc([C@@H]2C[C@H](O)CC[C@H]2CCCO)c(O)c1 [CP 55,940]","N-arachidonoyl tryptophan level, Mean",[1],BDL
same,"N-arachidonoyl tyrosine level, Mean",[1],7.88E-13
same,"N-docosahexaenoyl GABA level, Mean",[1],9.2E-13
same,"N-docosahexaenoyl alanine level, Mean",[1],5.16E-12
same,"N-docosahexaenoyl ethanolamine level, Mean",[1],3.15E-11
same,"N-docosahexaenoyl glycine level, Mean",[1],1.89E-11
same,"N-docosahexaenoyl leucine level, Mean",[1],7.64E-13
same,"N-docosahexaenoyl methionine level, Mean",[1],BDL
same,"N-docosahexaenoyl phenylalanine level, Mean",[1],1.25E-12
same,"N-docosahexaenoyl proline level, Mean",[1],BDL
same,"N-docosahexaenoyl serine level, Mean",[1],2.42E-11
same,"N-docosahexaenoyl tryptophan level, Mean",[1],BDL
same,"N-docosahexaenoyl tyrosine level, Mean",[1],PISSR
same,"N-docosahexaenoyl valine level, Mean",[1],PISSR
same,"N-linoleoyl GABA level, Mean",[1],4.99E-13
same,"N-linoleoyl alanine level, Mean",[1],2.58E-12
same,"N-linoleoyl ethanolamine level, Mean",[1],6.76E-11
same,"N-linoleoyl glycine level, Mean",[1],5.29E-12
same,"N-linoleoyl leucine level, Mean",[1],3.89E-13
same,"N-linoleoyl methionine level, Mean",[1],BDL
same,"N-linoleoyl phenylalanine level, Mean",[1],2.51E-13
same,"N-linoleoyl proline level, Mean",[1],BDL
same,"N-linoleoyl serine level, Mean",[1],8.04E-11
same,"N-linoleoyl tryptophan level, Mean",[1],BDL
same,"N-linoleoyl tyrosine level, Mean",[1],PISSR
same,"N-linoleoyl valine level, Mean",[1],PISSR
same,"N-nervonoyl valine level, Mean",[1],BDL
same,"N-oleoyl GABA level, Mean",[1],2.89E-12
same,"N-oleoyl alanine level, Mean",[1],1.01E-11
same,"N-oleoyl dopamine level, Mean",[1],BDL
same,"N-oleoyl ethanolamine level, Mean",[1],1.48E-10
same,"N-oleoyl glycine level, Mean",[1],2.1E-11
same,"N-oleoyl leucine level, Mean",[1],1.71E-12
same,"N-oleoyl methionine level, Mean",[1],8.45E-13
same,"N-oleoyl phenylalanine level, Mean",[1],1.23E-12
same,"N-oleoyl proline level, Mean",[1],PISSR
same,"N-oleoyl serine level, Mean",[1],3.91E-10
same,"N-oleoyl tryptophan level, Mean",[1],PISSR
same,"N-oleoyl tyrosine level, Mean",[1],3.7E-13
same,"N-oleoyl valine level, Mean",[1],7.17E-13
same,"N-palmitoyl GABA level, Mean",[1],5.66E-12
same,"N-palmitoyl alanine level, Mean",[1],1.96E-11
same,"N-palmitoyl ethanolamine level, Mean",[1],6.04E-11
same,"N-palmitoyl glycine level, Mean",[1],4.65E-11
same,"N-palmitoyl leucine level, Mean",[1],4.19E-12
same,"N-palmitoyl methionine level, Mean",[1],PISSR
same,"N-palmitoyl phenylalanine level, Mean",[1],2.85E-12
same,"N-palmitoyl proline level, Mean",[1],1.75E-12
same,"N-palmitoyl serine level, Mean",[1],7.46E-11
same,"N-palmitoyl tryptophan level, Mean",[1],4.02E-13
same,"N-palmitoyl tyrosine level, Mean",[1],1.11E-12
same,"N-palmitoyl valine level, Mean",[1],1.58E-12
same,"N-stearoyl GABA level, Mean",[1],5.59E-12
same,"N-stearoyl alanine level, Mean",[1],1.75E-11
same,"N-stearoyl ethanolamine level, Mean",[1],1.72E-11
same,"N-stearoyl glycine level, Mean",[1],2.5E-11
same,"N-stearoyl leucine level, Mean",[1],1.77E-12
same,"N-stearoyl methionine level, Mean",[1],1.74E-12
same,"N-stearoyl phenylalanine level, Mean",[1],2.56E-12
same,"N-stearoyl serine level, Mean",[1],3.13E-11
same,"N-stearoyl tryptophan level, Mean",[1],1.25E-12
same,"N-stearoyl tyrosine level, Mean",[1],1.27E-13
same,"Oleic acid level, Mean",[1],2.69E-09
same,"PGE2 level, Mean",[1],1.12E-09
same,"PhosphoLEA level, Mean",[1],2.75E-11
same,"THC level, Mean",[1],BDL
same,"2-arachidonoyl glycerol, Direction (relative to Veh)",[2],↓
same,"N-arachidonoyl phenylalanine, Direction (relative to Veh)",[2],↓
same,"N-palmitoyl leucine, Direction (relative to Veh)",[2],↑
same,PGF2α Direction (relative to Veh),[2],↑
same,PGF2α Magnitude (x Veh level),"hypothalamus, PND 50, 3mg/kg CP 55,940, ANOVA p .005",1.49 x Veh level
same,"N-arachidonoyl phenylalanine, Magnitude (x Veh level)","hypothalamus, PND 50, 3mg/kg CP 55,940, ANOVA p .013",0.70 x Veh level
same,"N-palmitoyl leucine, Magnitude (x Veh level)","hypothalamus, PND 50, 3mg/kg CP 55,940, ANOVA p .022",1.34 x Veh level
same,"2-arachidonoyl glycerol, Magnitude (x Veh level)","hypothalamus, PND 50, 3mg/kg CP 55,940, ANOVA p .033",0.80 x Veh level
same,"2-arachidonoyl glycerol level, Mean",[3],2.57E-10
same,"2-linoleoyl glycerol level, Mean",[3],1E-10
same,"2-oleoyl glycerol level, Mean",[3],1.24E-09
same,"2-palmitoyl glycerol level, Mean",[3],2.63E-09
same,"6-ketoPGF1α level, Mean",[3],1.26E-11
same,"11-OH-THC level, Mean",[3],BDL
same,"11-nor-9-carboxyTHC level, Mean",[3],BDL
same,"Arachidonic acid level, Mean",[3],1.92E-10
same,"Cannabidiol level, Mean",[3],BDL
same,"Linoleic acid level, Mean",[3],1.86E-10
same,"N- stearoyl valine level, Mean",[3],PISSR
same,"N-arachidonoyl GABA level, Mean",[3],6.6E-12
same,"N-arachidonoyl alanine level, Mean",[3],PISSR
same,"N-arachidonoyl dopamine level, Mean",[3],BDL
same,"N-arachidonoyl ethanolamine level, Mean",[3],2.54E-11
same,"N-arachidonoyl glycine level, Mean",[3],4.44E-13
same,"N-arachidonoyl methionine level, Mean",[3],BDL
same,"N-arachidonoyl phenylalanine level, Mean",[3],3.4E-13
same,"N-arachidonoyl proline level, Mean",[3],BDL
same,"N-arachidonoyl serine level, Mean",[3],PISSR
same,"N-arachidonoyl taurine level, Mean",[3],6.54E-12
same,"N-arachidonoyl tryptophan level, Mean",[3],BDL
same,"N-arachidonoyl tyrosine level, Mean",[3],BDL
same,"N-docosahexaenoyl GABA level, Mean",[3],PISSR
same,"N-docosahexaenoyl alanine level, Mean",[3],PISSR
same,"N-docosahexaenoyl ethanolamine level, Mean",[3],3.64E-11
same,"N-docosahexaenoyl glycine level, Mean",[3],1.54E-13
same,"N-docosahexaenoyl leucine level, Mean",[3],PISSR
